Patent publication US20240376099A1, “COMPOUNDS AND COMPOSITIONS AS INHIBITORS OF ENDOSOMAL TOLL-LIKE RECEPTORS” (Novartis AG, priority 2016, published 2024)

Molecular target: T1, TLR8 (Homo sapiens, UniProt Q9NR97)
T1 sequence (Q9NR97 27-1041): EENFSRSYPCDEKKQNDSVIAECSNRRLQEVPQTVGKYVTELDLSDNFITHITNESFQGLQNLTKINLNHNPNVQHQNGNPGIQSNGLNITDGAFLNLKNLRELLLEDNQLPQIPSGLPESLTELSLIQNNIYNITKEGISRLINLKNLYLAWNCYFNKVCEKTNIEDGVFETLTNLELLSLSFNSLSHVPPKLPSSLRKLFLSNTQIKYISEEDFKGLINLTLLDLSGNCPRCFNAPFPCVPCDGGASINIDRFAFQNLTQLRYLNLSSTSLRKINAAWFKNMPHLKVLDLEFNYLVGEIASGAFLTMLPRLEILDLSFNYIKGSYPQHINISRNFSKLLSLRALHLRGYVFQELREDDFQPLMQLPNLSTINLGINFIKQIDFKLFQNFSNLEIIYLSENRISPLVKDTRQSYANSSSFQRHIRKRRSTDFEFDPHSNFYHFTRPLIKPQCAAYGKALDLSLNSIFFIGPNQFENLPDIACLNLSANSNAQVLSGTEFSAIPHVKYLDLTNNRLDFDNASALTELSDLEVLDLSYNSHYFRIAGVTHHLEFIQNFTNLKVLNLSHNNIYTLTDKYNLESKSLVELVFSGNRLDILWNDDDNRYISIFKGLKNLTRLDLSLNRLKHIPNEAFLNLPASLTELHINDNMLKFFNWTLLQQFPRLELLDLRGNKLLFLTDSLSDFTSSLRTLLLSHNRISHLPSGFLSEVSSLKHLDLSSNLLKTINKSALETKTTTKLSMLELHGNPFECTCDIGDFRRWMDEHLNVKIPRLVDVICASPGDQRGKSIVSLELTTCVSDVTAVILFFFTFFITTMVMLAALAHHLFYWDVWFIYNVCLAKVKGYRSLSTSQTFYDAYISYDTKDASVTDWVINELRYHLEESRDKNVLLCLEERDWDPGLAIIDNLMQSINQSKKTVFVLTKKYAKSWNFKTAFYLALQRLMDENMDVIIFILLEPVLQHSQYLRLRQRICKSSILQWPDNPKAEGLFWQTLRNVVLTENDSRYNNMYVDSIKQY
Experiment: huPBMC TLR8 Antagonist IL-6 TR-FRET Assay
Type: cell-based
Set-up: Fresh blood was collected from normal human donors; endogenous in cells; host or cells: human PBMCs from fresh donor blood
Conditions: human PBMCs stimulated with ssRNA40 1 μg/ml (DOTAP), 14-16 hrs; IL-6 TR-FRET read-out
Method in brief: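 Human PBMCs from fresh donor blood (150,000 cells/well) stimulated 14–16 h at 37 °C with DOTAP-complexed ssRNA40 (final 1 μg/ml for TLR8, 10 μg/mL for TLR7) or ODN2216 (final 0.3 μM, TLR9), 0.25% DMSO, ten-point 1/3 compound dilutions. Supernatant IL-6 read by HTRF (TLR8); IFNα by IFNα2b AlphaLISA (TLR7/TLR9).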

SMILES	IC50
Cc1nn(CC23CCC(N)(CC2)CC3)c2c1CN(c1ccnc(-c3ccc(C#N)cc3)c1)CC2 [Compound No. 84, 4-(4-(1-((4-aminobicyclo[2.2.2]octan-1-yl)methyl)-3-methyl-6,7-dihydro-1H-pyrazolo[4,3-c]pyridin-5(4H)-yl)pyridin-2-yl)benzonitrile]	0.831 µM
Cc1cc(N2CCc3c(c(C)nn3CC34CCC(O)(CC3)CC4)C2)c2cnn(C)c2n1 [compound 46, 4-((5-(1,6-dimethyl-1H-pyrazolo[3,4-b]pyridin-4-yl)-3-methyl-4,5,6,7-tetrahydro-1H-pyrazolo[4,3-c]pyridin-1-yl)methyl)bicyclo[2.2.2]octan-1-ol]	> 10 µM
Cc1cc(N2CCc3nn(CC45CC(N)(C4)C5)c(C)c3C2)c2cnn(C)c2n1 [compound 52, 3-((5-(1,6-dimethyl-1H-pyrazolo[3,4-b]pyridin-4-yl)-3-methyl-4,5,6,7-tetrahydro-2H-pyrazolo[4,3-c]pyridin-2-yl)methyl)bicyclo[1.1.1]pentan-1-amine]	> 10 µM
Cc1cc(N2CCc3c(c(C)nn3CC34CCC(NC5CCC5)(CC3)CC4)C2)c2cnn(C)c2n1 [compound 54, N-cyclobutyl-4-((5-(1,6-dimethyl-1H-pyrazolo[3,4-b]pyridin-4-yl)-3-methyl-4,5,6,7-tetrahydro-1H-pyrazolo[4,3-c]pyridin-1-yl)methyl)bicyclo[2.2.2]octan-1-amine]	0.074 µM
Cc1cc(N2CCc3c(c(C)nn3CC34CCC(NC(C)C)(CC3)CC4)C2)c2cnn(C)c2n1 [compound 55, 4-((5-(1,6-dimethyl-1H-pyrazolo[3,4-b]pyridin-4-yl)-3-methyl-4,5,6,7-tetrahydro-1H-pyrazolo[4,3-c]pyridin-1-yl)methyl)-N-isopropylbicyclo[2.2.]octan-1-amine]	0.42 µM
Cc1cc(N2CCc3c(c(C)nn3CC34CCC(NC(C)CO)(CC3)CC4)C2)c2cnn(C)c2n1 (stereo not drawn) [compound 56, 2-((4-((5-(1,6-dimethyl-1H-pyrazolo[3,4-b]pyridin-4-yl)-3-methyl-4,5,6,7-tetrahydro-1H-pyrazolo[4,3-c]pyridin-1-yl)methyl)bicyclo[2.2.2]octan-1-yl)amino)propan-1-ol]	0.292 µM
CCNC12CCC(Cn3nc(C)c4c3CCN(c3cc(C)nc5c3cnn5C)C4)(CC1)CC2 [compound 57, 4-((5-(1,6-dimethyl-1H-pyrazolo[3,4-b]pyridin-4-yl)-3-methyl-4,5,6,7-tetrahydro-1H-pyrazolo[4,3-c]pyridin-1-yl)methyl)-N-ethylbicyclo[2.2.]octan-1-amine]	0.11 µM
Cc1cc(N2CCc3c(c(C)nn3CC34CCC(N5CCC5)(CC3)CC4)C2)c2cnn(C)c2n1 [compound 64, 1-((4-(azetidin-1-yl)bicyclo[2.2.2]octan-1-yl)methyl)-5-(1,6-dimethyl-1H-pyrazolo[3,4-b]pyridin-4-yl)-3-methyl-4,5,6,7-tetrahydro-1H-pyrazolo[4,3-c]pyridine]	0.115 µM
CCOCCNC12CCC(Cn3nc(C)c4c3CCN(c3cc(C)nc5c3cnn5C)C4)(CC1)CC2 [compound 71, 4-((5-(1,6-dimethyl-1H-pyrazolo[3,4-b]pyridin-4-yl)-3-methyl-4,5,6,7-tetrahydro-1H-pyrazolo[4,3-c]pyridin-1-yl)methyl)-N-(2-ethoxyethyl)bicyclo[2.2.2]octan-1-amine]	0.014 µM
CCOCCN(CCOCC)C12CCC(Cn3nc(C)c4c3CCN(c3cc(C)nc5c3cnn5C)C4)(CC1)CC2 [compound 72, 4-((5-(1,6-dimethyl-1H-pyrazolo[3,4-b]pyridin-4-yl)-3-methyl-4,5,6,7-tetrahydro-1H-pyrazolo[4,3-c]pyridin-1-yl)methyl)-N,N-bis(2-ethoxyethyl)bicyclo[2.2.2]octan-1-amine]	0.102 µM
Cc1cc(N2CCc3c(c(C)nn3CC34CCC(N5C[C@@H](O)[C@@H](O)C5)(CC3)CC4)C2)c2cnn(C)c2n1 [compound 74, (3S,4R)-1-(4-((5-(1,6-dimethyl-1H-pyrazolo[3,4-b]pyridin-4-yl)-3-methyl-4,5,6,7-tetrahydro-1H-pyrazolo[4,3-c]pyridin-1-yl)methyl)bicyclo[2.2.2]octan-1-yl)pyrrolidine-3,4-diol]	0.158 µM
Cc1cc(N2CCc3c(c(C)nn3CC34CCC(N5CC[C@H](O)C5)(CC3)CC4)C2)c2cnn(C)c2n1 [compound 75, (S)-1-(4-((5-(1,6-dimethyl-1H-pyrazolo[3,4-b]pyridin-4-yl)-3-methyl-4,5,6,7-tetrahydro-1H-pyrazolo[4,3-c]pyridin-1-yl)methyl)bicyclo[2.2.2]octan-1-yl)pyrrolidin-3-ol]	0.134 µM
Cc1cc(N2CCc3c(c(C)nn3CC34CCC(N(C)C5CCC5)(CC3)CC4)C2)c2cnn(C)c2n1 [compound 79, N-cyclobutyl-4-((5-(1,6-dimethyl-1H-pyrazolo[3,4-b]pyridin-4-yl)-3-methyl-4,5,6,7-tetrahydro-1H-pyrazolo[4,3-c]pyridin-1-yl)methyl)-N-methylbicyclo[2.2.2]octan-1-amine]	0.136 µM
Cc1cc(N2CCc3c(c(C)nn3CC34CCC(N5C[C@H](O)[C@@H](O)C5)(CC3)CC4)C2)c2cnn(C)c2n1 [compound 80, (3S,4S)-1-(4-((5-(1,6-dimethyl-1H-pyrazolo[3,4-b]pyridin-4-yl)-3-methyl-4,5,6,7-tetrahydro-1H-pyrazolo[4,3-c]pyridin-1-yl)methyl)bicyclo[2.2.2]octan-1-yl)pyrrolidine-3,4-diol]	0.466 µM
Cc1nn(CC23CCC(N4CCCC4)(CC2)CC3)c2c1CN(c1ccnc(-c3ccccc3)c1)CC2 [compound 85, 3-methyl-5-(2-phenylpyridin-4-yl)-1-((4-(pyrrolidin-1-yl)bicyclo[2.2.2]octan-1-yl)methyl)-4,5,6,7-tetrahydro-1H-pyrazolo[4,3-c]pyridine]	0.224 µM
Cc1cc(N2CCc3c(c(C)nn3CC34CCC(N5CCCC5)(CC3)CC4)C2)c2ccncc2n1 [compound 86, 2-methyl-4-(3-methyl-1-((4-(pyrrolidin-1-yl)bicyclo[2.2.2]octan-1-yl)methyl)-6,7-dihydro-1H-pyrazolo[4,3-c]pyridin-5(4H)-yl)-1,7-naphthyridine]	0.048 µM
Cc1cc(N2CCc3c(c(C)nn3CCC34CCC(N)(CC3)CC4)C2)c2cnn(C)c2n1 [compound 91, 4-(2-(5-(1,6-dimethyl-1H-pyrazolo[3,4-b]pyridin-4-yl)-3-methyl-4,5,6,7-tetrahydro-1H-pyrazolo[4,3-c]pyridin-1-yl)ethyl)bicyclo[2.2.2]octan-1-amine]	0.377 µM
Cc1cc(N2CCc3c(c(C)nn3CC34CCC(N)(CC3)CC4)C2)c2ccnc(C)c2n1 [compound 92, 4-((5-(2,8-dimethyl-1,7-naphthyridin-4-yl)-3-methyl-4,5,6,7-tetrahydro-1H-pyrazolo[4,3-c]pyridin-1-yl)methyl)bicyclo[2.2.2]octan-1-amine]	0.04 µM
